Tests used:
[1] = test system: AlCl3-induced AD rat model; test: Y-maze SAP test in AlCl3-induced AD rats; assay type: in vivo; settings: for SAP%: mean ± SE, n = 6
Procedure: All procedures were conducted conforming to the applicable National Institutes of Health standards and regulations for the Care and Use of Laboratory Animals. In this experiment, adult male Dawley rats in excellent condition weighing between 300 and 320 g were used. The animals were acquired from the Nile Company for Pharmaceuticals and Chemical Industries (Cairo, Egypt). They were placed in a controlled laboratory setting with unrestricted access to water, a temperature range of 24 to 26 °C, and 12 h a light–dark cycle. Three rats per cage were housed in polycarbonate cages that were individually packed with paper and encased with stainless steel wire.
One kind of short-term memory that SAP can represent is spatial working memory. Three arms, designated A, B, or C, were employed in a black hardwood Y-maze with a symmetrical triangular core space. Rats were briefly positioned at the edge of one arm and given 8 min to freely navigate around the maze. When the rat’s rear paws were fully inside the arm, the entries were counted. The following formula was used to determine SAP based on the total number of arm entries and alternations: SAP (%) = [number of alternations/(total arm entries − 2)] × 100 [94].

BACE1 = test: Brain BACE1 level (ELISA); assay type: in vivo, rat; parameters: reduction of BACE1 levels: concentration or dose not given beside the values; settings: AlCl3-induced AD rats; for BACE1 (ng/mL): mean ± SE, n = 6
Procedure: The brain tissues of the rats were removed and rigorously washed in isotonic saline 24 h after they were euthanized following the last behavioral test. For histological investigation, four brains per group were preserved for the whole night in 10% neutral buffered formalin. The remaining six brains were split into two sections each. In order to create a 10% homogenate (w/v), the first component was instantaneously homogenized using an ice-cold solution that included 300 mM sucrose and 50 mM Tris-HCl (pH 7.4). The homogenate was centrifuged at 1800× g for 10 min at 4 °C for biochemical tests, and the supernatant was thereafter kept at −20 °C. The second portion was set aside for use in RT-PCR analysis at −80 °C [94]. […]

Amyloid-β = test: Brain amyloid-β level (ELISA); assay type: in vivo, rat; parameters: reduction of β-amyloid levels: concentration or dose not given beside the values; settings: AlCl3-induced AD rats; for Amyloid-β (ng/g Tissue): brain, mean ± SE, n = 6
Procedure: (§1) The brain tissues of the rats were removed and rigorously washed in isotonic saline 24 h after they were euthanized following the last behavioral test. For histological investigation, four brains per group were preserved for the whole night in 10% neutral buffered formalin. The remaining six brains were split into two sections each. In order to create a 10% homogenate (w/v), the first component was instantaneously homogenized using an ice-cold solution that included 300 mM sucrose and 50 mM Tris-HCl (pH 7.4). The homogenate was centrifuged at 1800× g for 10 min at 4 °C for biochemical tests, and the supernatant was thereafter kept at −20 °C. The second portion was set aside for use in RT-PCR analysis at −80 °C [94].
(§2) See Supplementary Information.

5-HT = test: Brain 5-HT level (fluorometric); assay type: in vivo, rat; settings: AlCl3-induced AD rats; for 5-HT (ng/g Tissue): brain tissue, mean ± SE, n = 6
Procedure: as §1
(§3) Brain monoamine levels were promptly assessed following the rats’ euthanasia to prevent changes in the substance’s concentration. Dopamine (DA), norepinephrine (NE), and serotonin (5-HT) fluorometric tests were conducted on brain tissue homogenate using the Ciarlone method. […] The concentrations were articulated as nanograms per gram of fresh tissue using the fluorescence of reference solutions [95].

DA = test: Brain DA level (fluorometric); assay type: in vivo, rat; settings: AlCl3-induced AD rats; for DA (ng/g Tissue): brain tissue, mean ± SE, n = 6
Procedure: as §1, §3

NE = test: Brain NE level (fluorometric); assay type: in vivo, rat; settings: AlCl3-induced AD rats; for NE (nmol/g Tissue): brain tissue, mean ± SE, n = 6
Procedure: as §1, §3

TLR4 = TLR4 mRNA expression (RT-qPCR); assay type: in vivo, rat; parameters: reduction of TLR4 mRNA expression: concentration or dose not given beside the values; settings: AlCl3-induced AD rats; for TLR4: mRNA expression level, mean ± SE, n = 6
Procedure: as §1, §2

NFκβ = NFκβ mRNA expression (RT-qPCR); assay type: in vivo, rat; parameters: reduction of NFκβ mRNA expression: concentration or dose not given beside the values; settings: AlCl3-induced AD rats; for NFκβ: mRNA expression level, mean ± SE, n = 6
Procedure: as §1, §2

NLRP3 = NLRP3 mRNA expression (RT-qPCR); assay type: in vivo, rat; parameters: reduction of NLRP3 mRNA expression: concentration or dose not given beside the values; settings: AlCl3-induced AD rats; for NLRP3: mRNA expression level, mean ± SE, n = 6
Procedure: as §1, §2

GSK3β = GSK3β gene expression (RT-qPCR); assay type: in vivo, rat; settings: AlCl3-induced AD rats; for GSK3β: gene expression, mean ± SE, n = 6
Procedure: as §1, §2

MDA = test: Brain MDA content (thiobarbituric acid method); assay type: in vivo, rat; parameters: reduction in MDA brain content: concentration or dose not given beside the values; settings: AlCl3-induced AD rats; for MDA (nmol/g Tissue): brain tissue, mean ± SE, n = 6
HO-1 = HO-1 mRNA expression (RT-qPCR); assay type: in vivo, rat; settings: AlCl3-induced AD rats; for HO-1: mRNA expression in brain tissue, mean ± SE, n = 6
Procedure: as §1, §2

BChE = target: T1, BChE (Homo sapiens, UniProt P06276); test: biochemical; settings: for IC50: fluorescence kit, triplicate; for Selectivity Index BChE/AChE: ratio of IC50 BChE to IC50 AChE, <1 = preferential BChE inhibition
T1 construct: purchased Invitrogen EIABCHEF
Procedure: Using an Invitrogen BChE test kit (Catalog #EIABCHEF), the assay was performed in compliance with the supplier’s instructions. The study was conducted using black 96-well plates. […] Each well was then filled with 50 μL of the reaction mixture, which consisted of fluorescence detection reagent and butyrylthiocholine iodide in assay buffer. The plate was then left to incubate for 20 min at room temperature. Finally, excitation at 390 nm was used to observe emission at 510 nm using a microplate reader. Background fluorescence was further eliminated for each data point.

BAX/Bcl-2 = BAX/Bcl-2 ratio of gene expression; assay type: in vivo, rat; settings: AlCl3-induced AD rats
Procedure: as §1, §2

T1 sequence (P06276 29-602): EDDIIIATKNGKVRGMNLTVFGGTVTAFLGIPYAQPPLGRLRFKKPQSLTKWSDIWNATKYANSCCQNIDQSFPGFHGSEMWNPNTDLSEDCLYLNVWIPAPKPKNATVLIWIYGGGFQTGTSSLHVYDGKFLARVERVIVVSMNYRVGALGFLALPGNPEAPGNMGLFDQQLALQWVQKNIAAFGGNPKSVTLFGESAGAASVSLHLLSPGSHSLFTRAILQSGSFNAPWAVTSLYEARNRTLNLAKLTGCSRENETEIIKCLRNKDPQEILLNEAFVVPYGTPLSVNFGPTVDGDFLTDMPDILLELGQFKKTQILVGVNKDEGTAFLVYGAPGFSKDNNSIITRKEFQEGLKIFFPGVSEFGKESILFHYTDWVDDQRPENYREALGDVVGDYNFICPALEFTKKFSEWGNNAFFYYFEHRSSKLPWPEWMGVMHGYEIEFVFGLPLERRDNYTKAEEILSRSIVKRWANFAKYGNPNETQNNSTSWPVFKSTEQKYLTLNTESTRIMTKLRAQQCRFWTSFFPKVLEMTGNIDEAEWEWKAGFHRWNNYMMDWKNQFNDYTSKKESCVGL

SMILES | SAP% [1] | reduction of BACE1 levels (BACE1) [%] | BACE1 (ng/mL) (BACE1) | reduction of β-amyloid levels (Amyloid-β) [%] | Amyloid-β (ng/g Tissue) (Amyloid-β) | elevation of 5-HT levels (5-HT) [fold] | 5-HT (ng/g Tissue) (5-HT) | DA (ng/g Tissue) (DA) | NE (nmol/g Tissue) (NE) | TLR4 (TLR4) | NFκβ (NFκβ) | NLRP3 (NLRP3) | GSK3β (GSK3β) | reduction in MDA brain content (MDA) [%] | MDA (nmol/g Tissue) (MDA) | HO-1 (HO-1) | IC50 (BChE) [µM] | Selectivity Index BChE/AChE (BChE) | BAX/Bcl-2 Ratio (BAX/Bcl-2) | elevation of DA levels (DA) [fold] | further results
CCOC(=O)c1c(OC(=O)CCl)sc2c1CCCCC2 [Compound 4, Ethyl 2-(2-chloroacetoxy)-5,6,7,8-tetrahydro-4H-cyclohepta[b]thiophene-3-carboxylate] | 72.67 ± 1.02 ^abc % | 26.2 | 21.89 ± 0.27 ^abc ng/mL | 38.9 | 17.05 ± 0.2 ^abc ng/g Tissue | 2.4 | 4.29 ± 0.76 ^abc ng/g Tissue | 30.69 ± 1.2 ^abc ng/g Tissue | 282.6 ± 1.2 ^abc nmol/g Tissue | 6.39 ± 0.12 ^abc | 5.77 ± 0.19 ^abc | 6.30 ± 0.09 ^abc | 6.86 ± 0.15 ^abc | 33.6 | 77.14 ± 0.06 ^abc nmol/g Tissue | 0.39 ± 0.007 ^abc | 56.2 ± 1.93 | 1.36 | 19.53 | – | reduction of GSK3β gene expression (GSK3β): 32.7%
O=C1CN(c2ccc(Cl)cc2)C(=O)c2c(sc3c2CCCCC3)O1 [Compound 12, 4-(4-Chlorophenyl)-3,4,7,8,9,10-hexahydro-6H-cyclohepta[4,5]thieno[3,2-f][1,4]oxazepine-2,5-dione] | 76.5 ± 1.52 ^abc % | 53.9 | 13.68 ± 0.2 ^abc ng/mL | 62.3 | 10.51 ± 0.1 ^abc ng/g Tissue | 2.8 | 5.07 ± 0.18 ^abc ng/g Tissue | 38.37 ± 2.86 ^abc ng/g Tissue | 420.5 ± 2.86 ^abc nmol/g Tissue | 2.75 ± 0.06 ^abc | 4.30 ± 0.14 ^abc | 3.21 ± 0.12 ^abc | 5.36 ± 0.07 ^abc | 38 | 72.02 ± 0.05 ^abc nmol/g Tissue | 0.69 ± 0.020 ^abc | 65.9 ± 2.27 | 6.04 | 5.91 | 3.2 | rise in the level of NE (NE): 2.2 times; reduction of TLR4 mRNA expression (TLR4): 71.4%; reduction of NFκβ mRNA expression (NFκβ): 49.2%; reduction of NLRP3 mRNA expression (NLRP3): 69.9%; reduction of GSK3β gene expression (GSK3β): 47.4%; elevation of HO-1 mRNA expression (HO-1): 5.7 fold
N#Cc1ccc(N2CC(=O)Oc3sc4c(c3C2=O)CCCCC4)cc1 [Compound 13, 4-(2,5-Dioxo-2,3,7,8,9,10-hexahydro-6H-cyclohepta[4,5]thieno[3,2-f][1,4]oxazepin-4(5H)-yl)benzonitrile] | 82.67 ± 1.28 ^abc % | 61.7 | 11.35 ± 0.31 ^abc ng/mL | 67.6 | 9.04 ± 0.9 ^abc ng/g Tissue | 4.1 | 7.39 ± 0.1 ^abc ng/g Tissue | 48.65 ± 2.3 ^abc ng/g Tissue | 449.6 ± 2.3 ^abc nmol/g Tissue | 4.09 ± 0.27 ^abc | 3.49 ± 0.07 ^abc | 2.86 ± 0.11 ^abc | 3.63 ± 0.04 ^abc | 54.7 | 52.58 ± 0.08 ^abc nmol/g Tissue | 0.75 ± 0.010 ^abc | 4.22 ± 0.14 | 0.84 | 7.34 | 4.1 | increase in SAP% [1]: ~35%; rise in the level of NE (NE): 2.4 times; reduction of TLR4 mRNA expression (TLR4): 57.5%; reduction of NFκβ mRNA expression (NFκβ): 58.8%; reduction of NLRP3 mRNA expression (NLRP3): 73.2%; elevation of HO-1 mRNA expression (HO-1): 6.2 fold
O=C1CN(c2ccc(O)cc2)C(=O)c2c(sc3c2CCCCC3)O1 [Compound 15, 4-(4-Hydroxyphenyl)-3,4,7,8,9,10-hexahydro-6H-cyclohepta[4,5]thieno[3,2-f][1,4]oxa-zepine-2,5-dione] | 82.5 ± 0.89 ^abc % | 64.6 | 10.50 ± 0.2 ^abc ng/mL | 73.2 | 7.46 ± 0.9 ^abc ng/g Tissue | 3.7 | 6.77 ± 0.22 ^abc ng/g Tissue | 44.92 ± 2.85 ^abc ng/g Tissue | 499.8 ± 2.85 ^abc nmol/g Tissue | 4.57 ± 0.09 ^abc | 2.98 ± 0.10 ^abc | 3.36 ± 0.12 ^abc | 4.72 ± 0.05 ^abc | 45.2 | 63.68 ± 0.12 ^abc nmol/g Tissue | 0.82 ± 0.005 ^abc | 0.7 ± 0.02 | 0.44 | 5.20 | 3.8 | increase in SAP% [1]: ~34.8%; rise in the level of NE (NE): 2.7 times; reduction of TLR4 mRNA expression (TLR4): 52.5%; reduction of NFκβ mRNA expression (NFκβ): 64.8%; reduction of NLRP3 mRNA expression (NLRP3): 68.5%; reduction of GSK3β gene expression (GSK3β): 53.7%; elevation of HO-1 mRNA expression (HO-1): 6.7 fold
O=C1CN(c2ccccc2)C(=O)c2c(sc3c2CCCCC3)O1 [Compound 11, 4-Phenyl-3,4,7,8,9,10-hexahydro-6H-cyclohepta[4,5]thieno[3,2-f][1,4]oxazepine-2,5-dione] | 69.67 ± 1.69 ^abc % | 36.5 | 18.83 ± 0.13 ^abc ng/mL | 48.9 | 14.25 ± 0.16 ^abc ng/g Tissue | 5.0 | 9.13 ± 0.36 ^abc ng/g Tissue | 54.63 ± 6.11 ^abc ng/g Tissue | 321.2 ± 6.11 ^abc nmol/g Tissue | 5.56 ± 0.1 ^abc | 4.93 ± 0.08 ^abc | 5.39 ± 0.11 ^abc | 2.34 ± 0.06 ^abc | 68.4 | 36.75 ± 0.09 ^abc nmol/g Tissue | 0.53 ± 0.004 ^abc | 13.8 ± 0.48 | 5.18 | 13.15 | 4.6 | increase in SAP% [1]: 22%; rise in the level of NE (NE): 1.7 times; reduction of TLR4 mRNA expression (TLR4): 42.2%; reduction of NFκβ mRNA expression (NFκβ): 41.8%; reduction of NLRP3 mRNA expression (NLRP3): 49.5%; elevation of HO-1 mRNA expression (HO-1): 4.4 fold
